Data reported in article PMC5275761 (Biochemistry, 2016).

Molecular target: CYP3A4 (Homo sapiens, UniProt P08684, S18F)
Assay: Stopped-flow spectroscopy of ligand binding to CYP3A4 nanodiscs
Conditions: faster in POPC nanodiscs

C[C@]12CC[C@H]3[C@@H](CCC4=CC(=O)CC[C@@]43C)[C@@H]1CC[C@@H]2O [TST, testosterone]
rate constant for binding in POPC nanodiscs relative to 25% POPC/75% DMPC nanodiscs: ~ 4 fold
